In US10370622B2, “Soap bar having enhanced antibacterial activity” (Conopco, Inc., priority 2013, dated 2019):

Columns and labels:
[1] = in water at 25° C.; cited from earlier work
[2] = Silver ion solubility derived from solubility product (Ksp) in water at 25° C.; details: calculated as (Ksp·x)^(1/(x+1))

Silver Ion Solubility [Ag+] [2] [µM] | SMILES | Ksp [1] [mol/L]
– | [Br][Ag] [Silver bromide] | 5.3e-13
– | O=S(=O)([O-])[O-].[Ag+].[Ag+] [Silver sulfate] | 1.4e-05
– | O=C([O-])c1ccccc1.[Ag+] [Silver benzoate] | 2.5e-05
– | O=C([O-])CC(O)(CC(=O)[O-])C(=O)[O-].[Ag+].[Ag+].[Ag+] [Silver citrate] | 2.5e-18
13 | [Cl][Ag] [Silver chloride] | 1.8e-10
